Source: patent publication EP1509285B1, “SYNERGISTIC COMPOSITION OF TRANS-TETRACOS-15-ENOIC ACID AND APOCYNIN AND USE THEREOF” (COUNCIL OF SCIENTIFIC AND INDUSTRIAL RESEARCH, priority 2002, dated 2003)

Test system: bile flow and bile solids
Assay: Choleretic activity: bile flow and bile solids after bile duct cannulation in normal anaesthetised rats
Type: in vivo
Conditions: 50 mg kg-1 i.d., bile collected 0-5 hours, mean ±SE
Source text: The liver, by producing bile, plays an important role in digestion. The presence of bile in the intestine is necessary to accomplish the digestion and absorption of fats as well as absorption of the fat-soluble vitamins- A, D, E & K. Bile is also an important vehicle of excretion. It removes many drugs, toxins, bile pigments and various inorganic substances either derived from the diet or synthesized by the body as cholesterol or as cholic acid.
Effect on the liver bile flow of test drug and that of vehicle is carried out after cannulating the bile duct in normal anaesthesied rats. Bile collected is from each animal from 0-5 hours (Klaassen, 1969, Donal et al.1953). (Table 5)

With `C[C@H](CCC(=O)O)[C@H]1CC[C@H]2[C@@H]3C(=O)C[C@@H]4CC(=O)CC[C@]4(C)[C@H]3CC(=O)[C@]12C` [DHC, Dehydrocholic acid, reference compound] the “Bile parameters % Increase (as compared to normal) Bile flow” value was 38.40±2.76 ml% and the “Bile parameters % Increase (as compared to normal) Bile solids” value was 28.13±3.89 mg%.
